In the supplement of paper PMC13380429:

Legend:
Conditions in all cases: 72 h
[1] = tested on: HepG2; assay: drug sensitivity score (DSS) for viability; higher = more toxic; extreme values may be limits of the assay
[2] = tested on: Vero E6; assay: as above
[3] = tested on: Caco-2; assay: as above
[4] = tested on: Calu-3; assay: as above
[5] = tested on: U2OS; assay: as above
[6] = tested on: HepG2; assay: cell viability relative to DMSO; higher = less toxic
[7] = tested on: Vero E6; assay: as above
[8] = tested on: Caco-2; assay: as above
[9] = tested on: Calu-3; assay: as above
[10] = tested on: U2OS; assay: as above
[11] = tested on: HepG2; assay: relative viability EC50 (midpoint between 100% and the lowest measured viability); higher = less toxic
[12] = tested on: Vero E6; assay: as above
[13] = tested on: Caco-2; assay: as above
[14] = tested on: Calu-3; assay: as above
[15] = tested on: U2OS; assay: as above

SMILES: CCCCOC(=O)c1cc2c(cn1)[nH]c1ccccc12 [beta-CCB]
- drug sensitivity score [1]: 0
- drug sensitivity score [2]: 0
- drug sensitivity score [3]: 0.1
- drug sensitivity score [4]: 0
- drug sensitivity score [5]: 0
- cell viability ([6]; 1 nM): 117%
- cell viability ([6]; 10 nM): 118%
- cell viability ([6]; 100 nM): 105%
- cell viability ([6]; 1000 nM): 98.4%
- cell viability ([6]; 10000 nM): 96%
- cell viability ([7]; 1 nM): 99.5%
- cell viability ([7]; 10 nM): 97.3%
- cell viability ([7]; 100 nM): 101%
- cell viability ([7]; 1000 nM): 98.7%
- cell viability ([7]; 10000 nM): 102%
- cell viability ([8]; 1 nM): 95.1%
- cell viability ([8]; 10 nM): 95.5%
- cell viability ([8]; 100 nM): 106%
- cell viability ([8]; 1000 nM): 94.9%
- cell viability ([8]; 10000 nM): 88.9%
- cell viability ([9]; 1 nM): 92.2%
- cell viability ([9]; 10 nM): 93%
- cell viability ([9]; 100 nM): 107%
- cell viability ([9]; 1000 nM): 106%
- cell viability ([9]; 10000 nM): 91.5%
- cell viability ([10]; 1 nM): 102%
- cell viability ([10]; 10 nM): 111%
- cell viability ([10]; 100 nM): 99.3%
- cell viability ([10]; 1000 nM): 105%
- cell viability ([10]; 10000 nM): 96%
- relative viability EC50 [11]: > 10 µM
- relative viability EC50 [12]: > 10 µM
- relative viability EC50 [13]: > 10 µM
- relative viability EC50 [14]: > 10 µM
- relative viability EC50 [15]: > 10 µM

SMILES: CC(C)(C)[C@]1(O)CC2OC(=O)CC23C(=O)OC2OC(=O)[C@H](O)C231 (stereo not given in full) [bilobalide]
- drug sensitivity score [1]: 0
- drug sensitivity score [2]: 0
- drug sensitivity score [3]: 0
- drug sensitivity score [4]: 0
- drug sensitivity score [5]: 0
- cell viability ([6]; 1 nM): 95.1%
- cell viability ([6]; 10 nM): 97.1%
- cell viability ([6]; 100 nM): 104%
- cell viability ([6]; 1000 nM): 117%
- cell viability ([6]; 10000 nM): 108%
- cell viability ([7]; 1 nM): 104%
- cell viability ([7]; 10 nM): 104%
- cell viability ([7]; 100 nM): 105%
- cell viability ([7]; 1000 nM): 96.6%
- cell viability ([7]; 10000 nM): 103%
- cell viability ([8]; 1 nM): 98%
- cell viability ([8]; 10 nM): 97.6%
- cell viability ([8]; 100 nM): 97.2%
- cell viability ([8]; 1000 nM): 107%
- cell viability ([8]; 10000 nM): 89.7%
- cell viability ([9]; 1 nM): 101%
- cell viability ([9]; 10 nM): 98.9%
- cell viability ([9]; 100 nM): 109%
- cell viability ([9]; 1000 nM): 108%
- cell viability ([9]; 10000 nM): 116%
- cell viability ([10]; 1 nM): 94.7%
- cell viability ([10]; 10 nM): 104%
- cell viability ([10]; 100 nM): 94%
- cell viability ([10]; 1000 nM): 98.5%
- cell viability ([10]; 10000 nM): 97.7%
- relative viability EC50 [11]: > 10 µM
- relative viability EC50 [12]: > 10 µM
- relative viability EC50 [13]: > 10 µM
- relative viability EC50 [14]: > 10 µM
- relative viability EC50 [15]: > 10 µM

SMILES: CCN1CCN(c2cc(-c3ccc(F)cc3)c3c(n2)CCCCCC3)CC1 [blonanserin]
- drug sensitivity score [1]: 0
- drug sensitivity score [2]: 0
- drug sensitivity score [3]: 0
- drug sensitivity score [4]: 0
- drug sensitivity score [5]: 0
- cell viability ([6]; 1 nM): 95.1%
- cell viability ([6]; 10 nM): 88%
- cell viability ([6]; 100 nM): 92.3%
- cell viability ([6]; 1000 nM): 92.9%
- cell viability ([6]; 10000 nM): 92.9%
- cell viability ([7]; 1 nM): 98.2%
- cell viability ([7]; 10 nM): 101%
- cell viability ([7]; 100 nM): 95%
- cell viability ([7]; 1000 nM): 93.2%
- cell viability ([7]; 10000 nM): 102%
- cell viability ([8]; 1 nM): 94%
- cell viability ([8]; 10 nM): 108%
- cell viability ([8]; 100 nM): 98.3%
- cell viability ([8]; 1000 nM): 102%
- cell viability ([8]; 10000 nM): 95.5%
- cell viability ([9]; 1 nM): 89.4%
- cell viability ([9]; 10 nM): 93.4%
- cell viability ([9]; 100 nM): 94.5%
- cell viability ([9]; 1000 nM): 111%
- cell viability ([9]; 10000 nM): 92.7%
- cell viability ([10]; 1 nM): 100%
- cell viability ([10]; 10 nM): 97.3%
- cell viability ([10]; 100 nM): 96.4%
- cell viability ([10]; 1000 nM): 103%
- cell viability ([10]; 10000 nM): 92.9%
- relative viability EC50 [11]: > 10 µM
- relative viability EC50 [12]: > 10 µM
- relative viability EC50 [13]: > 10 µM
- relative viability EC50 [14]: > 10 µM
- relative viability EC50 [15]: > 10 µM

SMILES: O=C1C=Cc2cc(Br)ccc2C1=O [bonaphthone]
- drug sensitivity score [1]: 0
- drug sensitivity score [2]: 0
- drug sensitivity score [3]: 0
- drug sensitivity score [4]: 0.8
- drug sensitivity score [5]: 0.1
- cell viability ([6]; 1 nM): 101%
- cell viability ([6]; 10 nM): 117%
- cell viability ([6]; 100 nM): 97.5%
- cell viability ([6]; 1000 nM): 107%
- cell viability ([6]; 10000 nM): 94.2%
- cell viability ([7]; 1 nM): 95.5%
- cell viability ([7]; 10 nM): 98.6%
- cell viability ([7]; 100 nM): 93.5%
- cell viability ([7]; 1000 nM): 99.5%
- cell viability ([7]; 10000 nM): 102%
- cell viability ([8]; 1 nM): 87.2%
- cell viability ([8]; 10 nM): 86.3%
- cell viability ([8]; 100 nM): 97.9%
- cell viability ([8]; 1000 nM): 102%
- cell viability ([8]; 10000 nM): 94.4%
- cell viability ([9]; 1 nM): 116%
- cell viability ([9]; 10 nM): 104%
- cell viability ([9]; 100 nM): 94.3%
- cell viability ([9]; 1000 nM): 88%
- cell viability ([9]; 10000 nM): 99.1%
- cell viability ([10]; 1 nM): 101%
- cell viability ([10]; 10 nM): 96.1%
- cell viability ([10]; 100 nM): 103%
- cell viability ([10]; 1000 nM): 101%
- cell viability ([10]; 10000 nM): 85.6%
- relative viability EC50 [11]: > 10 µM
- relative viability EC50 [12]: > 10 µM
- relative viability EC50 [13]: > 10 µM
- relative viability EC50 [14]: > 10 µM
- relative viability EC50 [15]: > 10 µM

SMILES: CCCC[C@H](NC(C)=O)C(=O)N[C@H]1CC(=O)NCCCC[C@@H](C(=O)O)NC(=O)[C@H](Cc2c[nH]c3ccccc23)NC(=O)[C@H](CCCNC(=N)N)NC(=O)[C@@H](Cc2ccccc2)NC(=O)[C@H](Cc2c[nH]cn2)NC1=O [bremelanotide]
- drug sensitivity score [1]: 0
- drug sensitivity score [2]: 0
- drug sensitivity score [3]: 0
- drug sensitivity score [4]: 0
- drug sensitivity score [5]: 0
- cell viability ([6]; 1 nM): 115%
- cell viability ([6]; 10 nM): 118%
- cell viability ([6]; 100 nM): 95.7%
- cell viability ([6]; 1000 nM): 102%
- cell viability ([6]; 10000 nM): 98.9%
- cell viability ([7]; 1 nM): 100%
- cell viability ([7]; 10 nM): 102%
- cell viability ([7]; 100 nM): 108%
- cell viability ([7]; 1000 nM): 99.3%
- cell viability ([7]; 10000 nM): 107%
- cell viability ([8]; 1 nM): 114%
- cell viability ([8]; 10 nM): 94.4%
- cell viability ([8]; 100 nM): 85.7%
- cell viability ([8]; 1000 nM): 90.8%
- cell viability ([8]; 10000 nM): 117%
- cell viability ([9]; 1 nM): 99.1%
- cell viability ([9]; 10 nM): 104%
- cell viability ([9]; 100 nM): 90.8%
- cell viability ([9]; 1000 nM): 100%
- cell viability ([9]; 10000 nM): 96.2%
- cell viability ([10]; 1 nM): 99.9%
- cell viability ([10]; 10 nM): 102%
- cell viability ([10]; 100 nM): 95%
- cell viability ([10]; 1000 nM): 104%
- cell viability ([10]; 10000 nM): 101%
- relative viability EC50 [11]: > 10 µM
- relative viability EC50 [12]: > 10 µM
- relative viability EC50 [13]: > 10 µM
- relative viability EC50 [14]: > 10 µM
- relative viability EC50 [15]: > 10 µM

SMILES: O=C(NCc1ccccc1)OCCO [buramate]
- drug sensitivity score [1]: 1
- drug sensitivity score [2]: 0
- drug sensitivity score [3]: 0
- drug sensitivity score [4]: 0
- drug sensitivity score [5]: 0
- cell viability ([6]; 1 nM): 106%
- cell viability ([6]; 10 nM): 97.8%
- cell viability ([6]; 100 nM): 104%
- cell viability ([6]; 1000 nM): 86.8%
- cell viability ([6]; 10000 nM): 85.8%
- cell viability ([7]; 1 nM): 100%
- cell viability ([7]; 10 nM): 102%
- cell viability ([7]; 100 nM): 111%
- cell viability ([7]; 1000 nM): 92%
- cell viability ([7]; 10000 nM): 101%
- cell viability ([8]; 1 nM): 96.1%
- cell viability ([8]; 10 nM): 105%
- cell viability ([8]; 100 nM): 89.9%
- cell viability ([8]; 1000 nM): 102%
- cell viability ([8]; 10000 nM): 88.1%
- cell viability ([9]; 1 nM): 99.7%
- cell viability ([9]; 10 nM): 97.3%
- cell viability ([9]; 100 nM): 95.8%
- cell viability ([9]; 1000 nM): 94.9%
- cell viability ([9]; 10000 nM): 91.5%
- cell viability ([10]; 1 nM): 99.5%
- cell viability ([10]; 10 nM): 100%
- cell viability ([10]; 100 nM): 99.7%
- cell viability ([10]; 1000 nM): 100%
- cell viability ([10]; 10000 nM): 100%
- relative viability EC50 [11]: > 10 µM
- relative viability EC50 [12]: > 10 µM
- relative viability EC50 [13]: > 10 µM
- relative viability EC50 [14]: > 10 µM
- relative viability EC50 [15]: > 10 µM

SMILES: C[S+](C)CC[C@H](N)C(=O)O [cabagin]
- drug sensitivity score [1]: 0
- drug sensitivity score [2]: 0
- drug sensitivity score [3]: 0
- drug sensitivity score [4]: 0
- drug sensitivity score [5]: 0
- cell viability ([6]; 1 nM): 95.6%
- cell viability ([6]; 10 nM): 99.5%
- cell viability ([6]; 100 nM): 103%
- cell viability ([6]; 1000 nM): 102%
- cell viability ([6]; 10000 nM): 98.5%
- cell viability ([7]; 1 nM): 92.1%
- cell viability ([7]; 10 nM): 99.5%
- cell viability ([7]; 100 nM): 85.3%
- cell viability ([7]; 1000 nM): 101%
- cell viability ([7]; 10000 nM): 108%
- cell viability ([8]; 1 nM): 90.6%
- cell viability ([8]; 10 nM): 97.6%
- cell viability ([8]; 100 nM): 109%
- cell viability ([8]; 1000 nM): 97.3%
- cell viability ([8]; 10000 nM): 99.6%
- cell viability ([9]; 1 nM): 103%
- cell viability ([9]; 10 nM): 84.8%
- cell viability ([9]; 100 nM): 85.1%
- cell viability ([9]; 1000 nM): 86.3%
- cell viability ([9]; 10000 nM): 103%
- cell viability ([10]; 1 nM): 97.9%
- cell viability ([10]; 10 nM): 92.3%
- cell viability ([10]; 100 nM): 101%
- cell viability ([10]; 1000 nM): 94.7%
- cell viability ([10]; 10000 nM): 100%
- relative viability EC50 [11]: > 10 µM
- relative viability EC50 [12]: > 10 µM
- relative viability EC50 [13]: > 10 µM
- relative viability EC50 [14]: > 10 µM
- relative viability EC50 [15]: > 10 µM
